Where a name gives a salt, the structure may show the parent alone.

The first assay deals with Sphingosine 1-phosphate receptor 1 (Homo sapiens, UniProt P21453). Briefly: S1P1 receptor agonists, dose response, cell-based, agonist mode, 60K MLSMR set (AID 468).
Sphingosine 1-phosphate receptor 1, sequence (P21453 whole entry): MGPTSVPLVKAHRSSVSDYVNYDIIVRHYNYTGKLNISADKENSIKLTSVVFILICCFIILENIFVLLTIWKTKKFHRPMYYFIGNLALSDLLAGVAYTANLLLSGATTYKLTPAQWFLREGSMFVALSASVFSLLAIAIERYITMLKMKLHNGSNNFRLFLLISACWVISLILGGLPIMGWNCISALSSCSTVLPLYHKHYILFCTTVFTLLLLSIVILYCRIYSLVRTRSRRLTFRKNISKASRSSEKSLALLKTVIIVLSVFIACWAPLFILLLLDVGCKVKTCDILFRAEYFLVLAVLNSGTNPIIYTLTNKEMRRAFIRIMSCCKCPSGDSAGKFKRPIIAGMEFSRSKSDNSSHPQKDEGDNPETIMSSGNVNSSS
Settings: not given
Regarding `CCCCOc1ncnc2c1[nH]c1ccccc12` [MLS000041483], the EC50 stood at 4.18 µM.
Same read-out and setting: next, `CC(=N)C(C#N)C(=O)CSc1nnc(SCc2ccc(Cl)cc2)s1` (stereo not drawn) [(E)-3-amino-2-[2-[[5-[(4-chlorobenzyl)thio]-1,3,4-thiadiazol-2-yl]thio]acetyl]but-2-enenitrile]: 8.95 µM; `CCC(NCCOc1ccc(Cl)cc1)=C1C(=O)N(C)C(=O)N(C)C1=O` [5-[1-[2-(4-chlorophenoxy)ethylamino]propylidene]-1,3-dimethyl-1,3-diazinane-2,4,6-trione]: 5.04 µM.
On the same count and under the same terms, next, `Cc1cc(C(=O)CSc2nnnn2C)c(C)n1-c1cccc(F)c1` [1-[1-(3-fluorophenyl)-2,5-dimethyl-3-pyrrolyl]-2-[(1-methyl-5-tetrazolyl)thio]ethanone]: 2.23 µM.
For `CCc1ccc(-c2nc(-c3ccncc3)no2)cc1` [5-(4-ethylphenyl)-3-(4-pyridyl)-1,2,4-oxadiazole], the EC50 came out at 5.7 µM.
With `CCOc1ccc(C2CC(c3cccc(OC)c3OC)n3nnnc3N2)cc1Cl` (stereo not drawn) [5-(3-chloranyl-4-ethoxy-phenyl)-7-(2,3-dimethoxyphenyl)-1,5,6,7-tetrahydro-[1,2,3,4]tetrazolo[1,5-a]pyrimidine], the concentration giving a half-maximal response (EC50) was above 95 µM.
Still for that read-out and setting: next, `CCCC(=O)N1CCN(c2ccc(NC(=O)c3cc4ccccc4o3)cc2Cl)CC1` [MLS000096729]: 8.85 µM; `CN(C)CC(C(=O)c1ccccc1)c1ccccc1` (stereo not drawn) [3-(dimethylamino)-1,2-diphenyl-1-propanone;hydrochloride]: 9.7 µM.
For `CC1=NC(=O)NC(c2ccccc2)C1C(=O)OCc1ccc2c(c1)OCO2` (stereo not drawn) [1,3-benzodioxol-5-ylmethyl 6-methyl-2-oxidanylidene-4-phenyl-3,4-dihydro-1H-pyrimidine-5-carboxylate], it took 1.84 µM to reach a half-maximal effect (EC50).
Same read-out and setting: next, `CC(=O)c1ccc(NC(=O)N2CCN(c3cccc(Cl)c3)CC2)cc1` [4-(3-chlorophenyl)-N-(4-ethanoylphenyl)piperazine-1-carboxamide]: 9.76 µM.
The molecule `Cc1ccc(-c2csc(N3CCC(NS(=O)(=O)c4ccc5c(c4)OCCO5)CC3)n2)cc1` [N-[1-[4-(4-methylphenyl)-1,3-thiazol-2-yl]piperidin-4-yl]-2,3-dihydro-1,4-benzodioxine-6-sulfonamide] had an EC50 of 1.65 µM.
On the same count and under the same terms, next, `COc1ccc(C(=O)C(CN2CCOCC2)c2ccccc2)cc1F` (stereo not drawn) [1-(3-Fluoro-4-methoxy-phenyl)-3-morpholin-4-yl-2-phenyl-propan-1-one]: 22.5 µM.
Same read-out and setting: next, `Cc1ccc(-c2csc3ncnc(Sc4nnc(CN5CCCCCC5=O)o4)c23)cc1` [1-[[5-[5-(4-methylphenyl)thieno[2,3-d]pyrimidin-4-yl]sulfanyl-1,3,4-oxadiazol-2-yl]methyl]azepan-2-one]: 2.35 µM; `Cc1cc(C(=O)CSc2nc3ccccc3c(=O)n2C)c(C)n1Cc1ccc2c(c1)OCO2` [2-[2-[1-(1,3-benzodioxol-5-ylmethyl)-2,5-dimethyl-pyrrol-3-yl]-2-oxidanylidene-ethyl]sulfanyl-3-methyl-quinazolin-4-one]: 5.41 µM.
Molecule `CCc1cc(-c2n[nH]cc2-c2ccc3c(c2)OCO3)c(O)cc1O` [SMR000060132] returned a concentration for a half-maximal effect (EC50) of 6 µM.
Same read-out and setting: next, `CCOC(=O)c1cccc2c1-c1ccccc1C2N=O` (stereo not drawn) [9-hydroximinofluorene-4-carboxylic acid ethyl ester]: 13 µM; `COc1ccc(CNC(=O)c2cc3c(C)nc4ccccc4c3o2)c(OC)c1` [MLS000118441]: 4.2 µM; `CCOc1ccc(C(C)=O)cc1-n1c(O)c2c(c1O)C1C=CC2O1` [MLS000087730]: 10.2 µM.
Still for that read-out and setting: next, `Clc1ccc(OCc2nnc(-c3ccccc3Br)o2)c(Cl)c1` [2-(2-bromophenyl)-5-[(2,4-dichlorophenoxy)methyl]-1,3,4-oxadiazole]: above 95 µM; `N#CCCS(=O)(=O)c1nnnn1-c1ccccc1` [3-(1-phenyltetrazol-5-yl)sulfonylpropanenitrile]: 3.66 µM; `CCCCOc1ccc(S(=O)(=O)Nc2cccnc2)cc1` [4-butoxy-N-(3-pyridinyl)benzenesulfonamide]: 9.47 µM.
As to `COc1ccc(N2CCn3c2nc2c3c(=O)n(CCCc3ccccc3)c(=O)n2C)c(OC)c1` [6-(2,4-dimethoxyphenyl)-4-methyl-2-(3-phenylpropyl)-7,8-dihydropurin[7,8-a]imidazole-1,3-quinone], the midpoint of the response, the EC50, lay at 5.83 µM.
The molecule `O=C(Nc1nc2c(s1)CCCC2)c1cc2n(n1)C(C(F)(F)F)CC(C1CC1)N2` (stereo not drawn) [5-Cyclopropyl-7-trifluoromethyl-4,5,6,7-tetrahydro-pyrazolo[1,5-a]pyrimidine-2-carboxylic acid (4,5,6,7-tetrahydro-benzothiazol-2-yl)-amide] showed a concentration giving a half-maximal response (EC50) of 0.996 µM.
On the same count and under the same terms, next, `CCOC(=O)N1CCN(C(=O)C2CCN(c3ncnc4c3sc3cccc(F)c34)CC2)CC1` [4-[1-(9-fluorobenzothiopheno[3,2-d]pyrimidin-4-yl)isonipecotoyl]piperazine-1-carboxylic acid ethyl ester]: 5.92 µM; `COc1ccccc1-c1cc(C(=O)Nc2ccccc2SC)no1` [5-(2-methoxyphenyl)-N-(2-methylsulfanylphenyl)-1,2-oxazole-3-carboxamide]: 6.26 µM.
Consider `Oc1ccc(-c2nnc(SCC3CCCCC3)o2)cc1` [4-(5-Cyclohexylmethylsulfanyl-[1,3,4]oxadiazol-2-yl)-phenol], for which the midpoint of the response, the EC50, lay at 0.552 µM.
`C=C(C)COc1ccc(-c2nc(N)nc(C)c2Oc2ccccc2OC)c(O)c1` [(6E)-6-[2-amino-5-(2-methoxyphenoxy)-6-methyl-1H-pyrimidin-4-ylidene]-3-(2-methylallyloxy)cyclohexa-2,4-dien-1-one] showed a concentration for a half-maximal effect (EC50) of 3.8 µM.
On the same count and under the same terms, next, `Cn1c(SCC(=O)Nc2ccc(N3CCOCC3)c(Cl)c2)nnc1-c1ccccc1` [MLS000089171]: 2.22 µM; `COc1ccccc1OCCCCCc1c(C)n[nH]c1C` [SMR000103101]: 9.84 µM; `O=C(Oc1cccc(C(=O)N2CCOCC2)c1)c1ccc(Br)cc1` [(3-morpholin-4-ylcarbonylphenyl) 4-bromanylbenzoate]: above 95 µM.
The same measure, in the same setting: next, `CC(C)OCCCNc1ncnc2c1[nH]c1ccc(F)cc12`: 4.41 µM; `CCOc1ccc(-c2nc(-c3ccc(OC)cc3)no2)cc1OCC` [5-(3,4-Diethoxy-phenyl)-3-(4-methoxy-phenyl)-[1,2,4]oxadiazole]: 0.568 µM; `Cc1csc(SCC(=O)c2cc(C)n(Cc3cccs3)c2C)n1` [1-[2,5-dimethyl-1-(2-thenyl)pyrrol-3-yl]-2-[(4-methylthiazol-2-yl)thio]ethanone]: 6.76 µM.
Molecule `CCOc1ccc(C(=O)Nc2c(C(N)=O)oc3ccccc23)cc1` [3-[(4-ethoxybenzoyl)amino]-1-benzofuran-2-carboxamide] showed a concentration giving a half-maximal response (EC50) of 4.08 µM.
Consider `O=C(CSC1=NCCS1)Nc1ccnc2ccccc12` [2-(4,5-dihydro-1,3-thiazol-2-ylsulfanyl)-N-quinolin-4-yl-ethanamide], for which a half-maximal effect (EC50) was put at 2.44 µM.
Still for that read-out and setting: next, `CCOc1ccc(-c2nnc(-c3cccnc3)o2)cc1OCC` [2-(3,4-diethoxyphenyl)-5-(3-pyridinyl)-1,3,4-oxadiazole]: 3.28 µM; `CCc1ccc2oc(-c3cc(N)cc(C)c3O)nc2c1` [(6E)-4-amino-6-(5-ethyl-3H-1,3-benzoxazol-2-ylidene)-2-methyl-1-cyclohexa-2,4-dienone]: 11.4 µM.
The molecule `O=C(Nc1nc(-c2ccc(Cl)s2)cs1)c1ccncc1` [MLS000098514] gave an EC50 above 3 µM.

Still in this assay, the particulars now being: inactive by the depositor's call.
`CC(C)Cn1c(N)c(C(=O)CSc2ccc3c(c2)OCCO3)c(=O)n(C)c1=O` [6-amino-5-[2-(2,3-dihydro-1,4-benzodioxin-6-ylsulfanyl)acetyl]-3-methyl-1-(2-methylpropyl)pyrimidine-2,4-dione] registered a half-maximal effective concentration (EC50) of 24 µM.
As for `CCc1ccc(-c2nc(CSCC(=O)N3CCN(c4ccccn4)CC3)c(C)o2)cc1` [1-[({[2-(4-ethylphenyl)-5-methyl-1,3-oxazol-4-yl]methyl}thio)acetyl]-4-pyridin-2-ylpiperazine], the EC50 was 11.8 µM.
Molecule `CCCOc1ccc(S(=O)(=O)NCc2ccc(OC)cc2)cc1` [MLS000104592] came in with an EC50 of 23.1 µM.
The molecule `CCOC(=O)c1ccc2nc(NC(=O)c3ccco3)sc2c1` [2-(2-furoylamino)-1,3-benzothiazole-6-carboxylic acid ethyl ester] registered a 50% effective concentration (EC50) of 16.3 µM.
`Cc1nn(Cc2ccc(Cl)cc2)c(C)c1NC(=O)c1cc(-c2ccco2)on1` [MLS000087233] showed an EC50 of 13.8 µM.
On the same count and under the same terms, next, `Cc1n[nH]c(C)c1N1C(=O)c2cccc3c(N4CCCCCC4)ccc(c23)C1=O`: 13.8 µM; `O=C(C1CCN(S(=O)(=O)c2cccc3cccnc23)CC1)N1CCN(c2ccc(Cl)cc2)CC1` [MLS000116819]: 17.3 µM.
The same measure, in the same setting: next, `CC(=O)c1sc(NC(=O)C2(F)C(F)(F)C(F)(F)C(F)(F)C(F)(F)C2(F)F)nc1C` [MLS000040071]: 30.4 µM.
The same measure, in the same setting: next, `CC(C)(CC(=O)N1CCN(c2ccc(Cl)cc2)CC1)CC1=NS(=O)(=O)c2ccccc2N1` [1-[4-(4-chlorophenyl)-1-piperazinyl]-4-(1,1-dioxo-4H-1,2,4-benzothiadiazin-3-yl)-3,3-dimethyl-1-butanone]: 10.5 µM.
For `COc1ccc(OC)c(-c2cc(C(=O)Nc3c(C)nn(Cc4ccc(Cl)cc4)c3C)no2)c1` [MLS000087191], the EC50 is 20.8 µM.
With `CN(Cc1cccs1)c1ncnc2sccc12` [MLS000056228], the EC50 is 13 µM.
For `COc1ccc(CNc2cc(C)nc3ncnn23)c(OC)c1` [(2,4-Dimethoxy-benzyl)-(5-methyl-[1,2,4]triazolo[1,5-a]pyrimidin-7-yl)-amine], the EC50 stood at 16.3 µM.
In the case of `CCCCCn1c(=O)c(C(=O)NCc2ccncc2)c(O)c2ccccc21` [1-amyl-2-hydroxy-4-keto-N-(4-pyridylmethyl)quinoline-3-carboxamide], the midpoint of the response, the EC50, lay at 19.8 µM.
On to `Cc1cc(C(=O)N2CCN(C(c3ccccc3)c3ccccc3)CC2)no1` [(4-benzhydrylpiperazin-1-yl)-(5-methyl-1,2-oxazol-3-yl)methanone], for which the EC50 is 25.5 µM.
With `COc1ccc2c(c1)-c1nc(NC(=O)c3cccs3)sc1CC2` [N-(8-methoxy-4,5-dihydrobenzo[e][1,3]benzothiazol-2-yl)-2-thiophenecarboxamide], the EC50 worked out at 17.3 µM.

Values taken from BindingDB's records for doi:10.7270/Q2251GJ9 (The Scripps Research Institute Molecular Screening Center, 2007).
